{
  "source": "paper PMC9653995",
  "about": "“New Positive TRPC6 Modulator Penetrates Blood–Brain Barrier, Eliminates Synaptic Deficiency and Restores Memory Deficit in 5xFAD Mice” (International Journal of Molecular Sciences, 2022)",
  "key": {"[1]": {"test": "In vivo pharmacokinetics in plasma and brain after single i.p. injection", "set-up": "species or system CD-1 mice", "settings": "mice, 10 mg/kg i.p.", "method": "Two-month-old CD-1 mice (males) were used for pharmacokinetic studies. CD-1 mice were obtained from Charles River GmbH and housed in the laboratory of bioanalytics of the ChemRar research institute. The number of animals in the study was kept at a minimum in terms of ethical principles and regulatory requirements.\nThe study was carried out on 20 mice. Five animals constituted the control group, which were not injected with the C20 substance. The remaining 15 animals were divided into 5 groups of 3 animals per time point. At least 12 h before the start of the experiment, the animals were deprived of food with free access to water.\nAll 15 animals from the experimental groups underwent a single intraperitoneal injection of the C20 formulation at a dose of 10 mg/kg (formulation containing 10% ethanol). After 0.25, 0.5, 1, 2, and 4 h, CO2 euthanasia was performed in each group of animals in accordance with the time point. Blood plasma and brain samples were obtained.\nBlood was collected by cardiopuncture in a volume of 0.2 mL into polypropylene tubes containing 20 μL of 5% EDTA. Blood plasma was separated by centrifugation at 10,000 rpm for 10 min.\nPharmacokinetic analysis was performed by a non-compartmental method using the Phoenix WinNonlin 6.3 software package (Pharsight Corporation, Mountain View, CA, USA) and in accordance with SOP-BL-AN-027 “Calculation and analysis of parameters of pharmacokinetic and toxicokinetic studies. Statistical processing of results”.\nAnalysis of pharmacokinetic parameters was performed using averaged pharmacokinetic curves in the plasma and brain. The main pharmacokinetic parameters were determined:\nThe intensity of C20 penetration into the brain was assessed in terms of tissue availability (ft):(1) ft=AUCt/AUCk, where AUCt is the area under the pharmacokinetic curve in the tissue; AUCk is the area under the pharmacokinetic curve in blood plasma."}, "[2]": {"test_system": "hippocampal slices from 8-month-old 5xFAD mice", "test": "LTP induction (HFS) in hippocampal Schaffer collateral-CA1 synapses of brain slices, fEPSP recording", "format": "cell-based, mouse", "settings": "100 nM, normalized to baseline, mean ± SEM", "method": "Long-term potentiation (LTP) is considered a cellular mechanism for long-term memory. LTP deficits have been reported in AD mouse models including 5xFAD mice. We examined whether C20 could improve synaptic plasticity in hippocampal slices of 5xFAD mice. LTP was induced in hippocampal Schaffer collateral-CA1 synapses by high-frequency stimulation (HFS).\nMouse transcardial perfusion was performed with 0–2 °C of holding buffer containing (in mM): 124 NaCl, 2.5 KCl, 24 NaHCO3, 1.2 NaH2PO4, 5 HEPES, 0.5 CaCl2*2H2O, 10 MgCl2*7H2O, 3 Na-pyruvate, and 12.5 D-glucose. […]\nAfter incubation, the slices were placed in a recording chamber and perfused with a constant flow of recording buffer saturated with carbogen. […] Field excitatory postsynaptic potentials (fEPSPs) were recorded from CA1 stratum radiatum in recording buffer (124 mM NaCl, 2.5 mM KCl, 24 mM NaHCO3, 1.2 mM NaH2PO4, 5 mM HEPES, 2 mM CaCl2*2H2O, 0.8 mM MgCl2*7H2O, and 12.5 mM D-glucose) using borosilicate glass microelectrodes (300–400 kΩ) filled with recording buffer. […] Electrophysiological field responses were amplified and controlled using a Multiclamp 700B (Molecular Devices, Sunnyvale, CA, USA), digitized by Digidata 1440A (Molecular Devices, USA) and analyzed by pClamp 10.6 (Axon Instruments, Union City, California, USA). […] The amplitude and slope of the rising phase of EPSP at a level of 20–80% of the peak amplitude were measured. […]"}},
  "data": [
    {"compound": "COc1cc2c(cc1OC)C(c1cc3ccccc3oc1=O)=NC(C)(C)C2", "note": "[C20, 3-(3-,4-Dihydro-6,7-dimethoxy-3,3-dimethyl-1-isoquinolinyl)-2H-1-benzopyran-2-one]", "values": [
      {"measurement": "concentration in brain samples after 4 h", "setting": "[1]", "value": 10, "unit": "ng/g"},
      {"measurement": "half-life (t1/2) of elimination from plasma", "setting": "[1]", "value": 31.2, "unit": "min"},
      {"measurement": "half-life (t1/2) of excretion from the brain", "setting": "[1]", "value": 44.4, "unit": "min"},
      {"measurement": "maximum concentration in plasma", "setting": "[1]; formulation with 10% ethanol", "value": 789, "unit": "ng/mL"},
      {"measurement": "time of maximum concentration (plasma and brain)", "setting": "[1]; first sampling point", "value": 15, "unit": "min"},
      {"measurement": "index of tissue availability in the brain (ft) in relation to blood plasma", "setting": "[1]; ft = AUCt/AUCk", "value": 1.05},
      {"measurement": "average fEPSP slope 30–40 min after HFS", "setting": "[2]; 8-month-old 5xFAD slices, 5xFAD alone 115.5 ± 3.0%", "value": "149.4 ± 9.7", "unit": "%"},
      {"measurement": "average fEPSP slope 30–40 min after HFS", "setting": "[2]; WT slices, WT alone 168.7 ± 4.8%", "value": "161.4 ± 9.6", "unit": "%"}
    ]}
  ]
}
